Experimental data taken from publication PMC11313193, “Which Constituents Determine the Antioxidant Activity and Cytotoxicity of Garlic? Role of Organosulfur Compounds and Phenolics” (International Journal of Molecular Sciences, 2024).
pIC50: −log10 of the molar value.

Key:
MRC-5 fibroblasts = assay: Cytotoxicity (Neutral Red), MRC-5 fibroblasts; type: cell-based, human; settings: 24 h exposure
Protocol: (§1) The PEO1 cells, SKOV-3 cells, and MRC-5 cells were grown at 37 °C and 5% CO2 in RPMI + GlutaMAX medium, McCoy’s 5A medium, and the DMEM + GlutaMAX medium, respectively. The media were supplemented with 10% heat-inactivated fetal calf serum and penicillin/streptomycin. The cell viability was evaluated using the Trypan Blue exclusion test.
(§2) In the cytotoxicity experiments, cells were grown in wells of sterile 96-well plates. The seeding density was 1 × 10^4 for SKOV-3 and MRC-5 cells and 1.5 × 10^4 for PEO1 cells. The cells were allowed to grow in the incubator for 24 h. Then, the medium was removed and new medium with an examined compound was added. The stock solutions of the compounds studied diluted with the appropriate cell medium were filtered before the addition to the cells using 0.22 µm filters. No more than 0.02% of DMSO was present in the media, and it had no discernible impact on the treated cells. Cells not exposed to any compound served as a control. After another 24 h incubation, the medium was gently aspirated, and the wells were added with 2% sterile Neutral Red solution (100 µL). The plates were then incubated (37 °C, 5% CO2) for one hour. The Neutral Red solution was aspirated, and the wells were washed two times with warm (37 °C) PBS. Subsequently, 100 µL of a permeabilization mixture (water/ethanol/glacial acetic acid, 50/49/1, v/v/v) was introduced to each well. The plates were shaken at 700 rpm for 20 min and absorbance was read at a wavelength of 540 nm against 620 nm.

SKOV-3 cells [1] = tested on: SKOV-3 cells; parameters: method as in PMID 25097657; settings: 24 h exposure, cited from earlier work
[2] = ABTS^● decolorization assay; settings: 30 min incubation at room temperature, absorbance at 734 nm
Protocol: A modification of the ABTS^● decolorization assay was employed. Briefly, various volumes of solutions of the studied compounds were introduced to wells of a 96-well microplate, each prefilled 200 μL of ABTS^● solution. […] The drop in absorbance after 30 min incubation at room temperature was read as a measure of the antioxidant activity.
(§3) All assays were standardized with respect to Trolox. The antioxidant activity was calculated in each case as a ratio of the slope of the dependence of absorbance change on the concentration of a studied compound to the slope of the dependence of absorbance change of standard samples concerning Trolox on the concentration of Trolox. Antioxidant activities were expressed in moles of Trolox equivalents (TE)/mol of a studied compound, as described previously.

[3] = parameters: method as in PMID 17312965; settings: cited from earlier work
[4] = Ferric reducing antioxidant power (FRAP) assay; settings: 30 min at ambient temperature, pH 3.6, absorbance at 593 nm
Protocol: The method proposed by Benzie and Strain [91] was employed with a slight modification. Briefly, increasing volumes of solutions of the studied compounds were added to wells of a 96-well microplate prefilled with 200 μL of the working solution composed of 0.3 M acetate buffer, pH 3.6 (10 volumes), 10 mM 2,4,6-tris(2-pyridyl)-s-triazine (TPTZ), in 40 mM HCl (1 volume) and 20 mM FeCl3 (1 volume), was prepared immediately before use. After 30 min incubation at ambient temperature and the absorbance of the Fe^2+-TPTZ complex was read at 593 nm.
as §3

[5] = tested on: SKOV-3 ovarian cancer cells; assay: Cytotoxicity (Neutral Red), SKOV-3 cells; type: cell-based, human; settings: 24 h exposure
Protocol: as §1, §2

[6] = tested on: breast cancer HCC-70 cells; parameters: method as in PMID 32286702; settings: 24 h exposure; read-out: Concentration lowering viability of HCC-70 cells to 50%; cited from earlier work
[7] = DPPH^● decolorization assay; settings: 30 min at ambient temperature in the dark, absorbance at 517 nm
Protocol: The assay was performed as described in a previous article. Briefly, increasing volumes of solutions of the studied compounds were introduced to wells of a 96-well microplate, each with 200 μL of 0.3 mM DPPH^● solution in methanol. The reaction was allowed to proceed for 30 min at ambient temperature in the dark, and absorbance at 517 nm was read. The absorbance decrease was a measure of the antioxidant activity.
as §3

U251 glioma cells = tested on: U251 glioma cells; parameters: method as in PMID 29436625; settings: 24 h exposure, cited from earlier work
[8] = tested on: SGC7901 human gastric adenocarcinoma cells; parameters: method as in PMID 21042755; settings: 120 μg/mL (i.e., ca. 0.74 mM), 24 h exposure; cited from earlier work
[9] = tested on: PEO1 ovarian cancer cells; assay: Cytotoxicity (Neutral Red), PEO1 cells; type: cell-based, human; settings: 24 h exposure
Protocol: as §1, §2

[10] = tested on: U87MG human glioblastoma cells; parameters: method as in PMID 22552443; settings: 24 h exposure, cited from earlier work
[11] = tested on: gastric carcinoma AGS cells; parameters: method as in PMID 15911108; settings: 24 h exposure, cited from earlier work
[12] = tested on: cervical squamous carcinoma SiHa cells; parameters: method as in PMID 30783417; settings: 50 nM, 24 h exposure; cited from earlier work
[13] = tested on: microsomal lipid peroxidation; parameters: method as in PMID 16822206; settings: cited from earlier work
[14] = tested on: MCF-7 breast cancer cells; parameters: method as in PMID 34626309; settings: 24 h exposure, cited from earlier work
[15] = tested on: breast cancer MCF-7 cells; parameters: method as in PMID 32286702; settings: 24 h exposure; read-out: Concentration lowering viability of MCF-7 cells to 50%; cited from earlier work
[16] = tested on: MDA-MB-231 breast cancer cells; parameters: method as in PMID 34626309; settings: 24 h exposure, cited from earlier work
SKOV-3 xenograft tumors = tested on: SKOV-3 xenograft tumors; parameters: method as in PMID 16675472; settings: administered intragastrically; cited from earlier work
SKOV-3 cells [17] = tested on: SKOV-3 cells; parameters: method as in PMID 16675472; settings: cited from earlier work
HO8910 xenograft tumors = tested on: HO8910 xenograft tumors; parameters: method as in PMID 16675472; settings: administered intragastrically; cited from earlier work
[18] = in the concentration range studied

C=CCS[S+]([O-])CC=C (stereo not drawn) [Allicin, S-(prop-2-en-1-yl)prop-2-ene-1-sulfinothioate]
Concentration at which viability of MRC-5 cells was lowered (MRC-5 fibroblasts; p < 0.05): 100 µM | pIC50 (MRC-5 fibroblasts; Homo sapiens, MRC5, Neutral Red, read-out: IC50 MRC-5): 3.92 | pIC50 (SKOV-3 cells [1]; converted from μg/mL, read-out: Concentration reducing viability of SKOV-3 cells to 50%): 3.31 to 3.37 | Concentration reducing viability of SKOV-3 cells to 50% (SKOV-3 cells [1]): 70 to 80 µg/mL | Antioxidant activity, ABTS^● Decolorization [2]: −0.038 ± 0.020 mol Trolox equivalents (TE)/mol compound | Reaction rate constant with cumene peroxyl radicals [3]: 2600 M⁻¹ s⁻¹ | Antioxidant activity, FRAP [4]: −0.0014 ± 0.0016 mol Trolox equivalents (TE)/mol compound | pIC50 ([5]; Homo sapiens, SK-OV-3, Neutral Red, read-out: IC50 SKOV-3): 3.63 | Effect on viability of SKOV-3 cells [5, 18]: did not significantly lower the viability | pIC50 [6]: ~5.00 | Antioxidant activity, DPPH^● Decolorization [7]: −0.023 ± 0.009 mol Trolox equivalents (TE)/mol compound | pIC50 (U251 glioma cells; converted from μg/mL, read-out: Concentration reducing viability of U251 glioma cells to 50%): 3.61 | Concentration reducing viability of U251 glioma cells to 50% (U251 glioma cells): ca. 40 μg/mL | Decrease in the survival of SGC7901 cells [8]: ca. 25% | pIC50 ([9]; Homo sapiens, PEO1, Neutral Red, read-out: IC50 PEO1): 3.55 | Effect on viability of PEO1 cells [9, 18]: did not significantly lower the viability | pIC50 ([10]; converted, read-out: Concentration reducing viability of U87MG glioblastoma cells to 50%): 3.26 | Concentration reducing viability of U87MG glioblastoma cells to 50% [10]: ca. 90 /mL μg | pIC50 ([11]; converted from μg/mL, read-out: Concentration diminishing survival of AGS cells to ca. 50%): ~4.21 | Concentration diminishing survival of AGS cells to ca. 50% [11]: 10 µg/mL | SiHa cell viability (decreased to) [12]: ca. 60% | Termination of lipid peroxidation / prevention of induced microsomal lipid peroxidation [13]: ineffective | pIC50 ([14]; converted from μg/mL, read-out: Concentration lowering survival of MCF-7 cells by 50%): ~4.37 | Concentration lowering survival of MCF-7 cells by 50% [14]: about 7 μg/mL | pIC50 [15]: ~4.82 | pIC50 ([16]; converted from μg/mL, read-out: Concentration lowering survival of MDA-MB-231 cells by 50%): ~3.95 | Concentration lowering survival of MDA-MB-231 cells by 50% [16]: about 18 μg/mL

C=CCSSC[C@H](N)C(=O)O [SAMC, S-allylmercaptocysteine]
Development of xenograft tumors formed by SKOV-3 cells (SKOV-3 xenograft tumors): inhibited | Migration of SKOV-3 cells and their invasiveness (SKOV-3 cells [17]): inhibited | Development of xenograft tumors formed by HO8910 cells (HO8910 xenograft tumors): inhibited
